Data taken from patent US4067997A, “Synergistic microbecidal composition and method” (priority 1976, dated 1978).
Values after ≈ are worked out from the molar mass of the structure shown. Where two headings read alike, the source gives them in different places.

What was measured:
Candida albicans = experiment: MIC on mass basis (Example V procedure); type: cell-based
Method: (§1) The essential procedure of Example I was followed with a series of phenolic compounds, with the exception that the test method was conducted on a mass (μg/ml) basis rather than a molecular (mol/ml) basis of the foregoing tests, since the long established phenol-coeffecient test is on a mass rather than molecular basis. Additionally, a different but closely related group of organisms were used in this test, in order to give a complete representative span on gram-negative, gram-positive and fungus organisms. Additionally, the phenolic derivatives chosen for test purposes include a number of derivatives which are presently accepted by the FDA as food-grade phenolic microbicides.
(§2) The same procedure of Example V was repeated but with combinations of mono-laurin (GML).
(§3) The procedure of Example V was repeated with combinations of glycerol mono-laurin (GML) and ethylenediamine tetraacetic acid (EDTA) as the calcium salt and in combination with BHA.

Escherichia coli = experiment: MIC on mass basis (Example V procedure); type: cell-based; conditions: Escherichia coli
Method: as §1, §2, §3

Nocardia asteroides [1] = experiment: MIC on mass basis (Example V procedure); type: cell-based
Method: as §1, §2, §3

Pseudomonas aeruginosa = experiment: MIC on mass basis (Example V procedure); type: cell-based
Method: as §1, §2, §3

Saccharomyces cerevisiae = experiment: MIC on mass basis (Example V procedure); type: cell-based; conditions: Saccharomyces cerevisiae
Method: as §1, §2, §3

Staphylococcus aureus = experiment: MIC on mass basis (Example V procedure); type: cell-based
Method: as §1, §2, §3

Corynebacterium sp. = experiment: MIC on mass basis (Example V procedure); type: cell-based; conditions: Corynebacterium
Method: as §1

[2] = system: Streptococcus faecalis (Group D); experiment: MIC on mass basis (Example V procedure); type: cell-based; conditions: Enterococcus faecalis
Method: as §1

Streptococcus pyogenes = experiment: MIC on mass basis (Example V procedure); type: cell-based; conditions: Streptococcus pyogenes
Method: as §1

Streptococcus Group A = experiment: MIC, broth dilution (Examples I/II); type: cell-based, beta-hemolytic streptococci Group A
Method: (§4) In order to establish comparative bactericidal and fungicidal results with homologous fatty acids, a series of experiments was performed with thirty straight-chain fatty acids and derivatives thereof. Eight different gram-negative and twelve different gram-positive organisms, representing a very broad spectrum of organisms, were used in these experiments including the fungus Candida (a yeast). Additionally, fatty acids were chosen to show the effects of saturation versus unsaturation, in the fatty acid claim. Standard solutions of the fatty acids and their derivatives were prepared by first dissolving the weighed compounds in 1 to 2 ml of 95% ethanol and immediately pouring this solution into 200 ml of Tripticase Soy Broth. These lipid compounds which are insoluble in water and broth precipitated into very small crystals or droplets. The tubes containing the suspension were warmed to approximately 70° C and were then placed in an ultrasonic tank for further solubilization of the lipid derivatives.
(§5) Standard solutions (or suspensions) at 1,000 μg/ml were twofold serially diluted with additional broth to a concentration of 125 μg/ml. A 4-ml amount of each dilution was then quickly, and with constant agitation, dispensed into appropriately labeled screw-capped glass tubes (16 by 125 mm). The tubes were sterilized with steam at 15 psi for 15 minutes. After sterilization, all tubes were cooled and incubated overnight at 35° C to insure sterility.
(§6) All compounds were compared on a molar (micromoles/milliliter) rather than on a mass basis. In the following lists of organisms used, those followed by a parenthetical number are registered with the American Type Culture Collection (ATCC); the remainder were isolates from Providence Hospital or Northland Laboratory.
(§7) One drop (0.04 ± 0.01 ml) of an 18-hr broth culture containing 10^7 and 10^9 organisms/ml was added to each dilution of the test compound, as well as to a tube of plain broth which served as the positive control. After inoculation, the contents of each tube were well mixed, and the tubes were incubated at 35° C in a 5% carbon dioxide + […] atmosphere.
(§8) The MIC is defined as the lowest concentration of compound at which no […] evidence of growth was observed when turbidity of the inoculated broth dilutions was compared with control tubes. […] Only a one-tube difference between the bactericidal and bacteriostatic concentrations was normally observed.
(§9) Standard solutions (1000 μg/ml) of three fatty acids and polyglycerol esters thereof were prepared as described in Example I. Also sucrose esters were prepared by transferring the weighed compounds (0.2 gm. dissolved in 1 ml absolute methanol) into 200 ml of sterile Trypticase Soy Broth (TSB). These standard solutions (1000 μg/ml) were twofold serially diluted with additional sterile broth to a concentration of 125 μg/ml. A 3.8 aliquot of each dilution was asceptically delivered into sterile screw-capped culture tubes. All tubes were incubated overnight at 36° C to insure sterility. The microorganisms used in this example were the same as those used in Example I.
(§10) The inoculum, 0.05 ml of an 13-24 hour TSB culture (approximately 10^9 organisms/ml) was asceptically delivered into all dilutions of the compounds, mixed well, and incubated at 36° C. A tube of inoculated broth without the compound served as a positive control and an uninoculated set of dilutions incubated along with the test dilutions, served as a negative control.
(§11) In those cases in which the test compound itself caused turbidity, an aliquot (0.015 ml) of the mixed broth was inoculated onto an agar plate and incubated at 36° C for examination, as described in Example I. The control procedure of Example I was also repeated. The lauric, capric, and oleic acids were used as internal controls and for comparison to Example I. The minimal inhibitory concentrations (μmole/ml) for the compounds studied are given in Tables 7 and 8.

[3] = system: nine gram-positive organisms and the yeast/fungus Candida; experiment: MIC, broth dilution, over all organisms (Examples I/II); type: cell-based; conditions: for Inhibition in words: saturated acids, Table 1; for Activity in words: at the concentration tested
Method: as §4, §5, §6
Staphylococcus aureus, S. epidermidis, beta-hemolytic streptococci (Group A and non-group A), group D streptococcus, Bacillus subtilis (6051), Sarcina lutea (9431), Micrococcus sp., Candida albicans, Nocardia asteroids (3308), Corynebacterium sp. (10700), and pneumococcus (63001).
as §7, §8
Table 5 presents a comparison of the C10 and C12 free acids and their glyceryl derivatives, and Table 6 gives the corresponding ranges of activity.
as §9
The inoculum, 0.05 ml of an 13-24 hour TSB culture (approximately 10^9 organisms/ml) was asceptically delivered into all dilutions of the compounds, mixed well, and incubated at 36° C. […]

Nocardia asteroides [4] = experiment: MIC, broth dilution (Examples I/II); type: cell-based, Nocardia asteroids (3308); conditions: Nocardia asteroides, read-out: Inhibitory concentration
Method: as §4, §5, §6, §7, §8, §9, §10, §11

[5] = Table 4, range over the organisms of Table 3, read-out: MIC range
[6] = Table 2, range over the organisms of Table 1, read-out: MIC range

With `O=C(O)CN(CCN(CC(=O)O)CC(=O)O)CC(=O)O` [EDTA, ethylenediamine tetraacetic acid] the MIC (Candida albicans; Candida albicans, read-out: MIC of EDTA alone) was 5000 µg/mL, the MIC (Candida albicans; Table 16, Candida albicans, no unit in table) was > 1,000 and the MIC (Escherichia coli; Table 16, Escherichia coli, no unit in table (Example 5 procedure, mass basis)) was > 1000 µg/mL. For the same compound, the MIC (Escherichia coli; read-out: MIC of EDTA alone, Table 17, 0 amount of GML) was > 10000 µg/mL, the MIC (Nocardia asteroides [1]; Nocardia asteroides, read-out: MIC of EDTA alone) was 500 µg/mL and the MIC (Nocardia asteroides [1]; Table 16, Nocardia asteroides, no unit in table) was 1,000. For the same compound, the MIC (Pseudomonas aeruginosa; Pseudomonas aeruginosa, read-out: MIC of EDTA alone) was 5000 µg/mL, the MIC (Pseudomonas aeruginosa; Table 16, Pseudomonas aeruginosa, no unit in table) was > 1,000 and the MIC (Saccharomyces cerevisiae; Table 16, Saccharomyces cerevisiae, no unit in table, read-out: MIC) was 1000 µg/mL. The MIC (Saccharomyces cerevisiae; Table 17, 0 amount of GML, read-out: MIC of EDTA alone) was 1000 µg/mL, the MIC (Staphylococcus aureus; Staphylococcus aureus, read-out: MIC of EDTA alone) was 5000 µg/mL and the MIC (Staphylococcus aureus; Table 16, Staphylococcus aureus, no unit in table) was > 1,000. For the same compound, the MIC (Corynebacterium sp.) was 1000 µg/mL (≈ 3.42 mM), the MIC (Corynebacterium sp.; read-out: MIC of EDTA alone) was 1000 µg/mL and the MIC [2] was > 1000 µg/mL. For the same compound, the MIC ([2]; read-out: MIC of EDTA alone) was 5000 µg/mL, the MIC (Streptococcus pyogenes) was 1000 µg/mL (≈ 3.42 mM) and the MIC (Streptococcus pyogenes; read-out: MIC of EDTA alone) was 1000 µg/mL.
With `CCCCCCCCCCCC(=O)O` [Lauric acid, lauric acid] the MIC (Streptococcus Group A; group A Streptococci, Bio Gel and Florisil used) was > 990 µM, the MIC (Streptococcus Group A; group A Streptococci, filtered (laurate crystals removed)) was 1000 µM (≈ 200 µg/mL) and the MIC (Streptococcus Group A; group A Streptococci, non-filtered broth) was 125 µM (≈ 25 µg/mL). For the same compound, the “Effect of albumin on MIC” value ([3]; Albumin (0.1%) added) was “had no effect on the determination of the MIC”, the MIC range ([3]; Table 4, range over the organisms of Table 3) was 0.062 to 2.49 µmol/mL and the MIC range ([3]; Table 6, range over the organisms of Table 5, NI = no inhibition) was 0.062 - 2.49 μ/Mol/ml. The MIC ([3]; read-out: MIC range) was 62 to 2490 µM (≈ 12.4 to 499 µg/mL) and the Inhibition in words [3] was “clearly the more active saturated acid”.
Work on `CCCCCCCCCCCC(=O)N(C)C` [Lauryl N,N-dimethylamide] yielded an MIC [3, 5] of 54 to 109 µM (≈ 12.3 to 24.8 µg/mL).
`CCCCCCCCCCCCO` [Lauryl alcohol] showed an MIC [3, 5] of 67 to 5400 µM (≈ 12.5 to 1010 µg/mL).
`CCCCCCCCCCCCCC(=O)O` [Myristic] showed an MIC ([3]; read-out: MIC range) of 218 to 4370 µM (≈ 49.8 to 998 µg/mL).
`CCCC/C=C\CCCCCCCC(=O)O` [Myristoleic] gave an MIC [3, 6] of 55 to 552 µM (≈ 12.4 to 125 µg/mL).
With `CCCCCCCC/C=C\CCCCCCCC(=O)O` [Oleic acid] the Activity in words [3] was “very limited activity”.
For `CCCCCC/C=C\CCCCCCCC(=O)O` [Palmitoleic], the MIC [3, 6] was 24 to 983 µM (≈ 6.11 to 250 µg/mL).
In the case of `CCCCCCCCCCCCCCCCCC(=O)O` [Stearic, stearic acid], the Inhibition in words [3] is reported as “not inhibitory at all”.
With `CCCCCCCCCCC(O)C(=O)O` (stereo not drawn) [α-hydroxylaurate] the MIC (Streptococcus Group A; read-out: Inhibitory concentration, Group A Strep) was 230 µM (≈ 49.8 µg/mL) and the MIC (Nocardia asteroides [4]) was 4630 µM (≈ 1000 µg/mL).
With Triglycerol oleate the MIC ([3]; Table 7, one entry across all (oleic acid: all other than Grp. A) organisms, NO INHIBITION, max. tested listed) was > 1980 µM and the Activity in words [3] was “no activity at the concentration tested”.
